# Assay results as given in patent publication US8648116B2, “Derivatives of N-(arylamino) sulfonamides including polymorphs as inhibitors of MEK as well as compositions, methods of use and methods for preparing the same” (Ardea Biosciences, Inc., priority 2005, dated 2014).
# Values joined by “and” are separate entries in the source; they are usually repeats but may differ in a detail not shown here. Equal entries are not always repeated. Where two headings read alike, the source gives them in different places. Marks after values point to notes of the source that are not given here.
# Tests used:
# [1] = system: orthotopic HT-29 human colorectal adenocarcinoma; test: Growth response of orthotopic HT-29 colon tumors in nude mice; format: in vivo, BALB/c nu/nu mice; conditions: for Caecum Weight / Tumour Weight: individual animals; for Average Caecum Weight / Average Tumour Weight: mice surviving to final day
# Protocol: Female BALB/c nu/nu mice (University of Adelaide, Waite Campus, SA, Australia), aged 7-12 weeks, with a body weight range: of 16.58-25.39 g (mean 21.52 g) were used for the study. The mice were divided into 6 Study groups (4 treatment groups and 2 control groups) as follows: • Number of Mice per Group: 10 in Groups 1 to 5 inclusive • 9 in ‘Take-Rate’ Control Group (Group 6)
# HT-29 human colorectal adenocarcinoma cells (Passage 4 from working stock VP-Stock 325) were cultured in RPMI1640 cell culture medium, which was supplemented with 10% FBS and penicillin-streptomycin (501 U/mL final concentration). The cells were harvested by trypsinisation, washed twice in HBSS and counted. The cells were then resuspended in HESS and adjusted to a final volume containing 2×10^8 cells/mL. Prior to inoculation, the incision site was liberally swabbed with alcohol and an incision made through the abdominal wall to expose the caecum wall. The needle was introduced through the surface of the caecum wall where 5 μL of cells (1×10^6 cells) were discharged.
# A stock solution was prepared weekly and stored at 4° C. Dosing solutions were prepared on each day of administration.
# Caecum and tumor wet weight were measured when each were excised post-mortem on the termination day of the study. At the termination of the study, the caecum was excised from all mice in each study group and weighed with the tumors intact. The tumors were then excised from the caecum and weighed.
# A two-sample t-test was used to determine the significance in body weight change within a treatment group between Day 0 and the termination day of the study. […] In these groups, a two-sample t-test was used to determine the significance in body weight change within a treatment group between Day 0 and the final treatment day of the study, and between the last treatment day and the termination day of the study.
# A One-Way Analysis of Variance (ANOVA) (All Pairwise Multiple Comparison Procedure and Multiple Comparison versus Control Group) was performed on the caecum weight and tumor weight data at the end of the study.
# A375 melanoma tumors = test: Anti-tumor xenograft activity, TGI and TGD (Example 94); format: in vivo, nu/nu mice
# Protocol: Human tumors were implanted in nu/nu mice. Compound A was administered orally for 14 days once tumors were approximately 100 mm^3 in size. Tumor growth inhibition (TGI) was determined after 14 days of treatment as the reduction in the size of tumors in treated groups versus vehicle controls. The time to endpoint (TTE) was calculated as the time for the tumor to reach the specified endpoint volume or the last day of the study, whichever came first. Treatment outcome was determined from percent tumor growth delay (% TGD), defined as the percent increase in median TTE of treated versus vehicle-treated control mice. Animals were also monitored for regression responses. Levels of pERK in tumors and brain were determined by Western blots and correlated with plasma levels of Compound A for the pharmacodynamic/pharmacokinetic study. A number of tumor models were evaluated with different doses and dosing regimens. […] The effect of different dosing regimens was evaluated in A375 xenografts.
# Female nu/nu mice were implanted with A375 Melanoma, Colo205 Colon Tumor, A431 Epidermoid Tumor or HT-29 Colon Tumor cells, which were allowed to grow to 100-200 mm^3. Compound A or vehicle was administered orally (25 mg/kg, 50 mg/kg or 100 mg/kg), once a day, for 14 days.
# Tumor Growth Inhibition for the groups treated with 25 mg/kg Compound A were calculated for the indicated tumor xenografts. Tumor Growth Inhibition was measured at the end of once daily dosing for 14 days and calculated according to:
# Female nu/nu mice were implanted with A375 tumor cells, which were allowed to grow to 100-200 mm^3. Compound. […] Tumor Growth Inhibition was measured at the end of once daily dosing for 14 days and calculated according to: […]
# [2] = system: human A375 melanoma xenografts
# A375 cells = test: Anchorage-independent growth inhibition (MTS, 7 days); format: cell-based, human
# [3] = Group 3: Compound A 50 mg/kg po qd × 14
# [4] = Group 3: Compound A 50 mg/kg po qd × 14, n=9
# [5] = Group 4: Compound A 25 mg/kg po bid × 14
# [6] = Group 4: Compound A 25 mg/kg po bid × 14, n=9
# [7] = Group 5: Compound A 25 mg/kg po qd × 14
# [8] = Group 5: Compound A 25 mg/kg po qd × 14, n=9
# [9] = Group 6: Compound A 12.5 mg/kg po bid × 14
# [10] = Group 6: Compound A 12.5 mg/kg po bid × 14, n=9
structure (smiles),measurement,setting,value
COc1cc(F)c(F)c(Nc2ccc(I)cc2F)c1NS(=O)(=O)C1(C[C@H](O)CO)CC1 [Compound A],Survival Number (No. Alive/Total),[1]; Compound A 2 mg/kg p.o. once daily Day 0 to 9,4/10
same,Caecum Weight,"[1]; Compound A 2 mg/kg, 2 mg/kg",0.347 g and 0.170 g and 0.150 g and 0.205 g and 0.377 g and 0.233 g and 0.251 g and 0.322 g
same,Tumour Weight,"[1]; Compound A 2 mg/kg, 2 mg/kg",0.001 g (3×) and 0.000 g and 0.005 g (2×) and 0.122 g and 0.003 g
same,Average Caecum Weight,[1]; Compound A 2 mg/kg,0.296 g
same,Average Tumour Weight,[1]; Compound A 2 mg/kg,0.033 g
same,Caecum Weight,"[1]; Compound A 10 mg/kg, 10 mg/kg",0.287 g and 0.198 g and 0.258 g and 0.111 g and 0.263 g and 0.237 g and 0.234 g and 0.289 g and 0.320 g and 0.251 g
same,Tumour Weight,"[1]; Compound A 10 mg/kg, 10 mg/kg",0.000 g (3×) and 0.257 g and 0.008 g and 0.422 g and 0.001 g and 0.014 g and 0.004 g and 0.100 g
same,Average Caecum Weight,[1]; Compound A 10 mg/kg,0.244 g
same,Average Tumour Weight,[1]; Compound A 10 mg/kg,0.078 g
same,Caecum Weight,"[1]; Compound A 50 mg/kg, 50 mg/kg",0.230 g and 0.254 g and 0.238 g and 0.201 g and 0.337 g and 0.169 g and 0.328 g and 0.217 g and 0.312 g and 0.463 g
same,Tumour Weight,"[1]; Compound A 50 mg/kg, 50 mg/kg",0.002 g (2×) and 0.000 g and 0.004 g and 0.166 g and 0.655 g and 0.001 g (3×) and 0.026 g
same,Average Caecum Weight,[1]; Compound A 50 mg/kg,0.290 g
same,Average Tumour Weight,[1]; Compound A 50 mg/kg,0.122 g
same,% TGI,"A375 melanoma tumors; A375 Melanoma xenograft, 25 mg/kg QD oral, 14 days, range from 2 separate studies",52-72** %
same,"% TGD, significance","A375 melanoma tumors; A375 melanoma tumors, 25 or 50 mg/kg once daily (QD)",statistically significant
same,% TGI,"A375 melanoma tumors; A375 xenografts, 12.5 mg/kg BID",79.5%
same,% TGI,"A375 melanoma tumors; A375 xenografts, 25 mg/kg BID",110.1%
same,% TGD,"A375 melanoma tumors; A375 xenografts, 25 mg/kg QD",143%
same,% TGI,"A375 melanoma tumors; A375 xenografts, 25 mg/kg QD",51.7%
same,% TGD,"A375 melanoma tumors; A375 xenografts, 50 mg/kg QD",233%
same,% TGI,"A375 melanoma tumors; A375 xenografts, 50 mg/kg QD",69.9%
same,% TGD,"A375 melanoma tumors; A375 xenografts, 100 mg/kg orally once every two days",91%
same,% TGD,[2]; [3],21%
same,Median TTE,[2]; [3],27.5 days
same,T − C,[2]; [3],4.7 days
same,Regressions CR,[2]; [4],0
same,Regressions PR,[2]; [4],1
same,Regressions TFS,[2]; [4],0
same,% TGD,[2]; [5],163%
same,MTV (n) Day 60,[2]; [5],0 (4)
same,Median TTE,[2]; [5],59.9 days
same,T − C,[2]; [5],37.1 days
same,Regressions CR,[2]; [6],5
same,Regressions PR,[2]; [6],4
same,Regressions TFS,[2]; [6],4
same,% TGD,[2]; [7],12%
same,Median TTE,[2]; [7],25.6 days
same,T − C,[2]; [7],2.8 days
same,Regressions CR,[2]; [8],0
same,Regressions PR,[2]; [8],0
same,Regressions TFS,[2]; [8],0
same,% TGD,[2]; [9],21%
same,Median TTE,[2]; [9],27.5 days
same,T − C,[2]; [9],4.7 days
same,Regressions CR,[2]; [10],0
same,Regressions PR,[2]; [10],1
same,Regressions TFS,[2]; [10],0
same,Mean BW Nadir,"[2]; mouse, in vivo, po, 25 mg/kg",−0.6% Day 15
same,GI50,"A375 cells; Homo sapiens, A-375, 168 h, A375 Melanoma, BRAF V600E, 0.15% agarose, read-out: Anchorage-Independent GI50 (nM ± sd)",68 ± 34 nM
COc1cc(F)c(F)c(Nc2ccc(I)cc2F)c1NS(=O)(=O)C1(C[C@H](O)CO)CC1,"HT-29 tumor and caecum weight, trend",[1]; 10 mg/kg p.o.,reduction
same,average caecum and tumor weights vs Vehicle Control,"[1]; 2, 10 and 50 mg/kg p.o.",no significant difference
same,Median TTE,"[2]; Group 3, 50 mg/kg po qd×14",27.5 days
same,PR,"[2]; Group 3, 50 mg/kg po qd×14",A single animal
same,TGD,"[2]; Group 3, 50 mg/kg po qd×14",21%
same,CR,"[2]; Group 4, 25 mg/kg po bid×14",5/9
same,Median TTE,"[2]; Group 4, 25 mg/kg po bid×14",59.9 days
same,PR,"[2]; Group 4, 25 mg/kg po bid×14",4/9
same,TFS,"[2]; Group 4, 25 mg/kg po bid×14",4/9
same,TGD,"[2]; Group 4, 25 mg/kg po bid×14, maximum possible",163%
same,Median TTE,"[2]; Group 5, 25 mg/kg po qd×14",25.6 days
same,tumor regressions,"[2]; Group 5, 25 mg/kg po qd×14",no tumor regressions
same,TGD,"[2]; Group 5, 25 mg/kg po qd×14, non-significant",12%
same,Median TTE,"[2]; Group 6, 12.5 mg/kg po bid×14",27.5 days
same,PR,"[2]; Group 6, 12.5 mg/kg po bid×14",a single PR response
same,TGD,"[2]; Group 6, 12.5 mg/kg po bid×14",21%
same,GI50,"A375 cells; A375, anchorage independent, read-out: Mean GI50",84 nM
same,GI50,"A375 cells; A375 cells, read-out: GI50, anchorage independent growth (FIG. 12B)",22 nM
